Results on 37 molecules are retold here after US20070191336A1 (priority 2003, published 2007).

SMILES strings stand for the structures.

For one assay, the target named is T1, phospho p-38 alpha kinase (Homo sapiens, UniProt Q16539).
T1 construct: purchased Panvera
T1 sequence (Q16539 whole entry): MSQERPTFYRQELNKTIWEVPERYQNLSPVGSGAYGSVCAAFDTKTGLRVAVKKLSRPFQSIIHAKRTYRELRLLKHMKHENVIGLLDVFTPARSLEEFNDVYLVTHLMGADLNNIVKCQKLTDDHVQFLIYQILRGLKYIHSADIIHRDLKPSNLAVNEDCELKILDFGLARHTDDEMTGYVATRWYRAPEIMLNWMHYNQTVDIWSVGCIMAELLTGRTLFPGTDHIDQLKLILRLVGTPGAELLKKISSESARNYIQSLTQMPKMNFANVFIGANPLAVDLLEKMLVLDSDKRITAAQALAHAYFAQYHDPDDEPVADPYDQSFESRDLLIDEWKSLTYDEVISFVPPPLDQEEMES
The experiment in a line: P-38 alpha kinase assay (spectrophotometric, pyruvate kinase/lactate dehydrogenase coupled). It counts as biochemical. The following applies: Table 3; at 10 uM.
Turning to `CC(C)c1cc(NC(=O)Nc2ccc(Cl)cc2)n(-c2cccc(CCC(=O)O)c2)n1` [Example 532], the “% Inhibition @ concentration” value is given as 66% @ 10. Regarding `CC(C)c1cc(NC(=O)Nc2ccc(Cl)cc2)n(-c2cccc(CCC(=O)O)c2)n1` [Example 533, 3-(3-(5-(3-(4-chlorophenyl)ureido)-3-isopropyl-1H-pyrazol-1-yl)phenyl)propanoic acid], the “% Inhibition @ concentration” value is given as 39% @ 10.

Still in this assay, the particulars now being: Table 3; rates from […] to 2 h time frame.
Consider `CC(C)(C)c1cc(NC(=O)Nc2cccc(F)c2F)n(-c2cccc(C#N)c2)n1` [Example 355, 1-[3-t-butyl-1-(3-cyan-phenyl)-1H-pyrazol-5-yl]-3-(2,3-difluorophenyl)urea], for which the IC50 (commonly the concentration that gives 50% inhibition) turned out to be 42 nM. Molecule `CC(C)(C)c1cc(NC(=O)Nc2ccccc2F)n(-c2ccc(CC(=O)O)cc2)n1` [Example 306, 2-(4-(3-t-butyl-5-(3-(2-fluorophenyl)ureido)-1H-pyrazol-1-yl)phenyl)acetic acid] returned an IC50 of 58 nM.

`CC(C)(C)c1cc(NC(=O)Nc2cccc(C(F)(F)F)c2)n(-c2cccc(CO)c2)n1` [Example 408, 1-{3-t-butyl-1-[3-(hydroxymethyl)phenyl]-1H-pyrazol-5-yl}-3-(3-(trifluoromethyl)phenyl)urea] yielded an IC50 of 116 nM. Take `CC(C)(O)c1cccc(-n2nc(C(F)(F)F)cc2NC(=O)Nc2cccc3ccccc23)c1` [Example 440]: 920 nM corresponded to half-maximal inhibition (IC50). As to `CC(C)(C)c1cc(NC(=O)Nc2ccccc2F)n(-c2cccc(CC(N)=O)c2)n1` [Example 352, 1-{1-[3-(2-amino-2-oxoethyl)phenyl]-3-t-butyl-1H-pyrazol-5-yl}-3-(2-fluorophenyl)urea], the IC50 stood at 43 nM. Molecule `COc1cccc(-n2nc(C(C)(C)C)cc2NC(=O)Nc2ccc(F)cc2)c1` [Example 309, 1-(3-t-butyl-1-(3-methoxyphenyl)-1H-pyrazol-5-yl)-3-(4-fluorophenyl)urea] returned an IC50 of 300 nM. This IC50 is about 7-fold higher than that of the molecule before.

For the molecule `CC(C)c1cc(NC(=O)Nc2ccc(Cl)cc2)n(-c2ccc(CO)cc2)n1` [Example 438, 1-(4-chlorophenyl)-3-{1-[4-(hydroxymethyl)phenyl]-3-isopropyl-1H-pyrazol-5-yl}-urea], the IC50 is 1300 nM. Consider `CC(C)(C)c1cc(NC(=O)Nc2cccc3ccccc23)n(-c2ccc3c(c2)CNCC3)n1` [Example 509, 1-[3-t-butyl-1-(1,2,3,4-tetrahydroisoquinolin-7-yl)-1H-pyrazol-5-yl]-3-(naphthalen-1-yl)urea], for which half-maximal inhibition (IC50) was put at 500 nM. `CCOC(=O)Cc1ccc(-n2nc(C(C)(C)C)cc2NC(=O)Nc2ccc(Cl)cc2)cc1` [Example 420, ethyl 2-(4-{3-t-butyl-5-[3-(4-chlorophenyl)ureido]-1H-pyrazol-1-yl}phenyl)acetate] yielded an IC50 of 14.7 nM. `CC(C)(C)c1cc(NC(=O)Nc2cccc3ccccc23)n(-c2ccc(CO)cc2)n1` [Example 461, 1-{3-t-butyl-1-[4-(hydroxymethyl)phenyl]-1H-pyrazol-5-yl}-3-(naphthalen-1-yl)urea] showed an IC50 of 17 nM. This IC50 and that of the molecule before are within 1.5-fold of each other. As for `CC(C)(C)c1cc(NC(=O)Nc2ccc(Cl)cc2)n(-c2ccc3c(c2)CNCC3)n1` [Example 510, 1-[3-t-butyl-1-(1,2,3,4-tetrahydroisoquinolin-7-yl)-1H-pyrazol-5-yl]-3-(4-chlorophenyl)urea], the IC50 worked out at 470 nM.

`COc1cccc(NC(=O)Nc2cc(-c3ccccc3)nn2-c2cccc(CO)c2)c1` [Example 458, 1-{3-phenyl-1-[3-(hydroxymethyl)phenyl]-1H-pyrazol-5-yl}-3-(3-methoxyphenyl)urea] yielded an IC50 of 1000 nM.

Turning to `CC(O)c1cccc(-n2nc(C(C)(C)C)cc2NC(=O)Nc2cccc3ccccc23)c1` (stereo not shown) [Example 472, 1-{3-t-butyl-1-[3-(1-hydroxyethyl)phenyl]-1H-pyrazol-5-yl}-3-(naphthalen-1yl)urea], inhibition was half-maximal at 50 nM (IC50). The molecule `O=C(Nc1cccc(Cl)c1)Nc1cc(-c2ccccc2)nn1-c1cccc(CO)c1` [Example 455, 1-{3-phenyl-1-[3-(hydroxymethyl)phenyl]-1H-pyrazol-5-yl}-3-(3-chlorophenyl)urea] yielded a concentration for half-maximal inhibition (IC50) of 100 nM. In turn, `COc1cccc(-n2nc(C(C)(C)C)cc2NC(=O)Nc2cccc(Cl)c2)c1` [Example 311, 1-(3-t-butyl-1-(3-methoxyphenyl)-1H-pyrazol-5-yl)-3-(3-chlorophenyl)urea] registered an IC50 of 182 nM. This IC50 lies about 1.8-fold higher than the previous one. In turn, `CC(C)(C)c1cc(NC(=O)Nc2ccc(Cl)cc2)n(-c2cccc(CN3C(=O)CCC3=O)c2)n1` [Example 320, 1-(3-t-butyl-1-{3-[(2,5-dioxopyrrolidin-1-yl)methyl]phenyl}-1H-pyrazol-5-yl)-3-(4-chlorophenyl)urea] came in with an IC50 of 790 nM. With `CCOC(=O)c1cccc(-n2nc(C(C)(C)C)cc2NC(=O)Nc2cccc(Cl)c2Cl)c1` [Example 474, ethyl 3-{3-t-butyl-5-[3-(2,3-dichlorophenyl)ureido]-1H-pyrazol-1-yl}benzoate], 380 nM corresponded to half-maximal inhibition (IC50).

As for `CC(C)(C)c1cc(NC(=O)Nc2cccc3ccccc23)n(-c2ccc(OCC(=O)O)cc2)n1` [Example 520, 1-(3-t-butyl-1-(4-(carboxymethyl)oxyphenyl)-1H-pyrazol-5-yl)-3-(naphthalen-1-yl)urea], the IC50 amounted to 9.2 nM.

On to `CC(Cc1ccc(-n2nc(C(C)(C)C)cc2NC(=O)Nc2ccc(Cl)cc2)cc1)C(=O)O` (stereo not shown) [Example 430, 3-(4-{3-t-butyl-5-[3-(4-chlorophenyl)ureido]-1H-pyrazol-1-yl}phenyl)-2-methylpropanoic acid], for which the IC50 was found to be 942 nM. In turn, `CC(C)(C)c1cc(NC(=O)Nc2cccc(C(F)(F)F)c2)n(-c2cccc(C#N)c2)n1` [Example 361] displayed an IC50 of 870 nM.

The molecule `CC(C)(C)c1cc(NC(=O)Nc2cccc(Cl)c2Cl)n(-c2cccc(CCC(=O)O)c2)n1` [Example 365, 3-(3-{3-t-Butyl-5-[3-(2,3-dichloro-phenyl)ureido]-1H-pyrazol-1-yl}-phenyl)propionic acid] returned an IC50 of 7 nM.

`CC(C)(C)c1cc(NC(=O)Nc2cccc(Cl)c2Cl)n(-c2ccc3c(c2)CNCC3)n1` [Example 508, 1-[3-t-butyl-(1,2,3,4-tetrahydroisoquinolin-7-yl)-1H-pyrazol-5-yl]-3-(2,3-dichlorophenyl)urea] returned an IC50 of 52 nM. This IC50 is about 7.4-fold higher than that of the molecule before. In turn, `COc1cccc(-n2nc(C(C)(C)C)cc2NC(=O)Nc2cccc(C)c2)c1` [Example 313, 1-(3-t-butyl-1-(3-methoxyphenyl)-1H-pyrazol-5-yl)-3-m-tolylurea] returned an IC50 of 250 nM. `COc1cccc(-n2nc(C(C)(C)C)cc2NC(=O)Nc2cc(Cl)cc(Cl)c2)c1` [Example 319, 1-(3-t-butyl-1-(3-methoxyphenyl)-1H-pyrazol-5-yl)-3-(3,5-dichlorophenyl)urea] displayed an IC50 of 320 nM.

Still in this assay, the particulars now being: read-out: % Inhibition @ concentration, Table 3; at 0.1 uM.
For the molecule `CC(C)(C)c1cc(NC(=O)Nc2ccc(Cl)cc2)n(-c2ccc(OCC(=O)O)cc2)n1` [Example 526, 1-(3-t-butyl-1-(4-(carboxymethyl)oxyphenyl)-1H-pyrazol-5-yl)-3-(4-chlorophenyl-1-yl)urea], the inhibition at 0.1 µM stood at 25%. Still for that read-out and setting: as for `CCOC(=O)Cc1cccc(-n2nc(C(C)(C)C)cc2NC(=O)Nc2ccc3c(c2)OCO3)c1` [Example 399, ethyl 2-(3-{5-[3-(benzo[d][1,3]dioxol-5-yl)ureido]-3-t-butyl-1H-pyrazol-1-yl}phenyl)-acetate], the figure is 21%; as for `COc1ccc(-n2nc(C(C)(C)C)cc2NC(=O)Nc2cccc(Cl)c2)cc1` [Example 350, 1-[3-t-butyl-1-(4-methoxyphenyl)-1H-pyrazol-5-yl]-3-(3-chlorophenyl)urea], 39%.

Staying with this assay, now noted: read-out: % Inhibition @ concentration, Table 3; at 1 uM.
With `CC(C)(C)c1cc(NC(=O)Nc2ccc(Cl)cc2)n(-c2ccc(OCC(=O)O)cc2)n1` [Example 526, 1-(3-t-butyl-1-(4-(carboxymethyl)oxyphenyl)-1H-pyrazol-5-yl)-3-(4-chlorophenyl-1-yl)urea], the inhibition at 1 µM was 70%. Take `CC(C)(C)c1cc(NC(=O)Nc2cccc3ccccc23)n(-c2cccc(OCCCN3CCS(=O)(=O)CC3)c2)n1` [Example 528, 1-(5-t-butyl-2-{3-[3-(1,1-dioxo-16-thiomorpholin-4-yl)-propoxy]-phenyl}-2H-pyrazol-3-yl)-3-naphthalen-1-yl-urea]: the inhibition at 1 µM is 35%. With `CCOC(=O)Cc1cccc(-n2nc(C(C)(C)C)cc2NC(=O)Nc2ccc3c(c2)OCO3)c1` [Example 399, ethyl 2-(3-{5-[3-(benzo[d][1,3]dioxol-5-yl)ureido]-3-t-butyl-1H-pyrazol-1-yl}phenyl)-acetate], the inhibition at 1 µM was 74%. Take `Cc1cc(NC(=O)Nc2cccc3ccccc23)n(-c2ccc(C(O)C(F)(F)F)cc2)n1` (stereo not shown) [Example 451, 1-{3-methyl-1-[4-(2,2,2-trifluoro-1-hydroxyethyl)phenyl]-1H-pyrazol-5-yl}-3-(naphthalen-1-yl)urea]: the inhibition at 1 µM stood at 3%. Consider `COc1ccc(-n2nc(C(C)(C)C)cc2NC(=O)Nc2cccc(Cl)c2)cc1` [Example 350, 1-[3-t-butyl-1-(4-methoxyphenyl)-1H-pyrazol-5-yl]-3-(3-chlorophenyl)urea], for which the inhibition at 1 µM worked out at 64%.

Staying with this assay, now noted: read-out: % Inhibition @ concentration, Table 3; at 2 uM.
For `COc1cccc(NC(=O)Nc2cc(C)nn2-c2cccc(OC)c2)c1` [Example 339, 1-(3-methoxyphenyl)-3-(1-(3-methoxyphenyl)-3-methyl-1H-pyrazol-5-yl)urea], the inhibition at 2 µM was determined as 9%. Take `COc1cccc(-n2nc(C)cc2NC(=O)Nc2cccc(C(F)(F)F)c2)c1` [Example 338, 1-(1-(3-methoxyphenyl)-3-methyl-1H-pyrazol-5-yl)-3-(3-(trifluoromethyl)phenyl)urea]: the inhibition at 2 µM came to 7%.

The assay is the same for the next values; noted with them: read-out: % Inhibition @ concentration, Table 3; at 10 uM.
Consider `COc1cccc(-n2nc(C)cc2NC(=O)Nc2cccc(Cl)c2Cl)c1` [Example 340, 1-(2,3-dichlorophenyl)-3-(1-(3-methoxyphenyl)-3-methyl-1H-pyrazol-5-yl)urea], for which the inhibition at 10 µM was determined as 31%. On the same count and under the same terms, next, `CC(C)(C)c1cc(NC(=O)Nc2ccc(F)cc2)n(-c2cccc(CCC(=O)O)c2)n1` [Example 146, 3-(3-{3-t-butyl-5-[3-(4-fluoro-phenyl)-ureido]-pyrazol-1-yl}-phenyl)-propionic acid]: 9%; `CCOC(=O)CCc1cccc(-n2nc(C(F)(F)F)cc2NC(=O)Nc2ccc(Cl)cc2)c1` [Example 529, 3-(3-{5-[3-(4-chloro-phenyl)-ureido]-3-trifluoromethyl-pyrazol-1-yl}-phenyl)-propionic acid ethyl ester]: 40%. On the same count and under the same terms, as for `COc1cccc(-n2nc(C)cc2NC(=O)Nc2cccc(Cl)c2)c1` [Example 336, 1-(3-chlorophenyl)-3-(1-(3-methoxyphenyl)-3-methyl-1H-pyrazol-5-yl)urea], the figure is 27%.
